Measurements from patent publication US5861400A, “Pharmaceutical compounds” (Xenova Limited, priority 1994, dated 1999).
Counter-ions that a name gives are not always drawn.

What was measured:
Type in all cases: cell-based, mouse
AR 1.0 cells [1] = test: Drug accumulation assay (tritiated daunorubicin, AR 1.0 cells); conditions: for MAX accumulation (% 100 μm VRP) / Emax: 100% = accumulation with 100 μM Verapamil, compounds 100 nM to 100 μM; for IC50: daunorubicin accumulation, 37° C., DNR 2 μM; for Emax: read-out: MAX accumulation (% 100 μm VRP)
Protocol: (§1) The EMT6 mouse mammary carcinoma cell line and the MDR resistant subline AR 1.0 were cultured in RPMI 1640 medium containing 10% foetal calf serum and 2mM glutamine at 37° C. in 5% CO2. Cells were passaged between 1 in 200 and 1 in 2000 in the case of the parental cell line and between 1 in 20 and 1 in 200 in the case of the MDR resistant subline, after trypsinisation (0.25% trypsin, 0.2 gl^-1, EDTA).
1. Drug accumulation assay
AR 1.0 cells were seeded into 96 well opaque culture plates (Canberra Packard). The assay medium contained a mixture of tritiated Daunorubicin (DNR), a cytotoxic agent, and unlabelled DNR (0.25μ Ci/ml; 2 μM). Compounds of formula A were serially diluted in assay medium over a range of concentrations from 100 nM to 100 μM. The cells were incubated at 37° C. for 1 hr before washing and counting of cell associated radioactivity. Each assay included a titration of the known resistance modifying agent Verapamil as positive control. Results were expressed as % maximum accumulation where 100% accumulation is that observed in the presence of 100 μM Verapamil.

AR 1.0 cells [2] = test: Potentiation of Doxorubicin toxicity (potentiation index, AR 1.0 cells); conditions: doxorubicin 0.5 nM-50 μM, four days; for Potentiation Index (at 5 μM): Conc Comp 5 μM
Protocol: as §1
2. Potentiation of Doxorubicin toxicity
Compounds of formula A were examined for their ability to potentiate the toxicity of doxorubicin in AR 1.0 cells. In initial proliferation assays compounds were titrated against a fixed concentration of doxorubicin (0.5-1 μM) which alone is non-toxic to AR 1.0 cells. Incubations with doxorubicin were over a four day period before quantitation of proliferation using the calorimetric sulphorhodamine B assay (Skehan et al; J. Natl. Cancer Inst. 82 pp 1107-1112 (1990)).
Cells were cultured for four days with concentrations of doxorubicin over the range of 0.5 nM-50 μM in the presence of Verapramil at its maximum subtoxic level determined from previous experiments. Proliferation was quantified as described by Skehan et al, loc cit. The IC50 (concentration required to reduce proliferation to 50% of the untreated controls) for doxorubicin alone and with the Verapamil were derived and used to calculate the potentiation index (PI): […]

AR 1.0 cells [3] = test: Proliferation/toxicity assay, compound alone and with cytotoxic agent (sulphorhodamine B)
[4] = Mus musculus, compound alone, read-out: COMPOUND TOXICITY (IC50 μM)
[5] = cytotoxic agent (doxorubicin) 0.50 μg/ml, 5760 min, read-out: TOXICITY WITH CYTOTOXIC AGENT (IC 50 μM)

Row | Molecule | IC50 (AR 1.0 cells [1]; Mus musculus, 1 h) [µM] | IC50 (AR 1.0 cells [3]; [4]) [µM] | Emax (AR 1.0 cells [1]; Mus musculus, 1 hr) [%] | also measured
1 | (3Z,6Z)-6-Benzylidene-3-furylidene-1,4-dimethyl-2,5-piperazinedione [Compound 1836] | – | – | – | MAX accumulation (% 100 μm VRP) (AR 1.0 cells [1]; 1 hr): 14.0%
2 | COc1ccc(/C=c2/c(=O)n(Cc3ccccc3)/c(=C\c3cn(C(=O)OC(C)(C)C)c4ccccc34)c(=O)n2C)cc1 [Compound 1874, (3Z,6Z)-4-benzyl-3-(1-tertbutoxycarbonyl-3-indolyl)methylene-6-(4-methoxybenzylidene)-1-methyl-2,5-piperazinedione] | 10 | – | – | Potentiation Index (at 5 μM) (AR 1.0 cells [2]): 20
3 | (3Z,6Z)-3-Benzylidene-6-(2-furyl)-1,4-dimethyl-2,5-piperazinedione [Compound 1799] | – | – | – | MAX accumulation (% 100 μm VRP) (AR 1.0 cells [1]; 1 hr): 40.0%
4 | Cn1c(=O)/c(=C/c2c[nH]c3ccccc23)n(C)c(=O)/c1=C/c1ccccc1 [Compound 1896, (3Z,6Z)-3-Benzylidene-6-(3-indoly)methylene-1,4-dimethyl-2,5-piperazinedione] | 12 | 30 | – | IC50 (AR 1.0 cells [3]; [5]): 4 µM
5 | COc1ccc(/C=c2/c(=O)[nH]/c(=C\c3cn(C(=O)OC(C)(C)C)c4ccccc34)c(=O)n2C)cc1 [Compound 1565, (3Z,6Z)-6-(4-Methoxybenzylidene)-1-methyl-3-(1-tert-butoxycarbonyl-3-indolyl)methylene-2,5-piperazinedione] | – | – | 37.3 | –
6 | Cn1c(=O)/c(=C/c2cn(C(=O)OC(C)(C)C)c3ccccc23)n(C)c(=O)/c1=C/c1c(Cl)cccc1Cl [Compound 1873, (3Z,6Z)-6-(2,6-dichlorobenzylidene)-3-(1-tertbutoxycarbonyl-3-indolyl)methylene-1,4-dimethyl-2,5-piperazinedione] | 5 | 8 | 56 | –
7 | Cn1c(=O)/c(=C/c2cn(C(=O)OC(C)(C)C)c3ccccc23)nc(OCCCN2C(=O)c3ccccc3C2=O)/c1=C/c1ccccc1 [Compound 1895, (3Z,6Z)-6-Benzylidene-1-methyl-5-(3-phthalimidopropoxy)-3-(l-tert-butoxycarbonyl-3-indolyl)methylene-3,6-dihydro-2-pyrazinone] | – | – | 12 | –
8 | COc1ccc(/C=c2/c(=O)n(Cc3ccccc3)/c(=C\c3ccoc3)c(=O)n2C)cc1 [Compound 1880, (3Z,6Z)-4-Benzyl-3-(3-furylmethylene)-6-(4-methoxybenzylidene)-1-methyl-2,5-piperazinedione] | 7 | 10 | – | –
9 | COc1ccc(/C=c2/c(=O)[nH]/c(=C\c3ccoc3)c(=O)n2C)cc1 [Compound 1563, (3Z,6Z)-3-(3-Furyl)methylene-6-(4-methoxybenzylidene)-1-methyl-2,5-piperazinedione] | – | – | 32.9 | –
10 | Cn1c(=O)/c(=C/c2ccccc2)nc(OCCCN2C(=O)CCC2=O)/c1=C/c1ccccc1 [Compound 1934, (3Z,6Z)-3,6-Dibenzylidene-1-methyl-5-(3-succinmidopropoxy)-3,6-dihydro-2-pyrazinone] | 1 | – | – | –
11 | Cn1c(=O)/c(=C/c2ccccc2)nc(OCCCN2C(=O)C(=O)c3ccccc32)/c1=C/c1ccccc1 [Compound 1935, (3Z,6Z)-3,6-Dibenzylidene-5-(2,3-dioxo-1-indolinyl)propoxy-1-methyl-3,6-dihydro-2-pyrazinone] | 6 | – | – | –
12 | Cn1c(=O)/c(=C/c2ccccc2)n(CCCN2C(=O)CCC2=O)c(=O)/c1=C/c1ccccc1 [Compound 1932, (3Z,6Z)-3,6-Dibenzylidene-4-methyl-1-(3-succinimidopropyl)-2,5-piperazinedione] | 10 | – | – | –
13 | Cn1c(=O)/c(=C/c2cn(C(=O)OC(C)(C)C)c3ccccc23)n(C)c(=O)/c1=C/c1cccs1 [Compound 1834, (3Z,6Z)-1,4-Dimethyl-3-(1-tert-butoxycarbonyl-3-indolyl)methylene-6-(2-thenylidene)-2,5-piperazinedione] | 5 | 10 | – | IC50 (AR 1.0 cells [3]; [5]): 0.8 µM; Potentiation Index (AR 1.0 cells [2]; Conc Comp 3 μM): 30
14 | Cn1c(=O)/c(=C/c2ccccc2[N+](=O)[O-])n(C)c(=O)/c1=C/c1cccs1 [Compound 1877, (3Z,6Z)-1,4-dimethyl-6-(2-nitrobenzylidene)-3-(2-thienylmethylene)-2,5-piperazinedione] | 20 | – | – | –
15 | Cn1c(=O)/c(=C/c2cn(C(=O)OC(C)(C)C)c3ccccc23)n(C)c(=O)/c1=C/c1ccoc1 [Compound 1875, (3Z,6Z)-6-(3-furylmethylene)-6-(1-tertbutoxycarbonyl-3-indolyl)methylene-1,4-dimethyl-2,5-piperazinedione] | 5 | 10 | – | IC50 (AR 1.0 cells [3]; [5]): 0.8 µM
16 | COc1ccc(/C=c2\[nH]c(=O)/c(=C/c3ccoc3)n(C)c2=O)cc1 [Compound 1596] | – | – | 47.7 | –
17 | Cn1c(=O)/c(=C/c2cn(CCCN3C(=O)c4ccccc4C3=O)c3ccccc23)n(C)c(=O)/c1=C/c1ccccc1 [Compound 1943, (3Z,6Z)-3-Benzylidene-1,4-dimethyl-6-(3-(1-(3-phthalimido)propyl)indolyl)methylene-2,5-piperazinedione] | 10 | 60 | – | IC50 (AR 1.0 cells [3]; [5]): 0.2 µM; Potentiation Index (at 5 μM) (AR 1.0 cells [2]): 20
18 | Cn1c(=O)/c(=C/c2cn(C(=O)OCc3ccccc3)c3ccccc23)n(C)c(=O)/c1=C/c1ccccc1 [Compound 1940, (3Z,6Z)-3-Benzylidene-6-(1-benzyloxycarbonyl-3-indolyl)methylene-1,4-dimethyl-2,5-piperazinedione] | 10 | 7 | – | Potentiation Index (at 5 μM) (AR 1.0 cells [2]): 14
19 | (3Z,6Z)-6-Benzylidene-1-methyl-3-(1-tert-butoxycarbonyl-3-(l-tert-butoxycarbonyl-3-indolyl)methylene-2,5-piperazinedione [Compound 1894] | – | – | – | MAX accumulation (% 100 μm VRP) (AR 1.0 cells [1]; 1 hr): 36.0%
20 | Cn1c(=O)/c(=C/c2cn(CN3C(=O)c4ccccc4C3=O)c3ccccc23)n(C)c(=O)/c1=C/c1ccccc1 [Compound 1897] | 3 | 50 | – | IC50 (AR 1.0 cells [3]; [5]): 1.5 µM; Potentiation Index (at 5 μM) (AR 1.0 cells [2]): 75
21 | Cn1c(=O)/c(=C/C2CCCCC2)n(C)c(=O)/c1=C/c1ccccc1 [Compound 1871, (3Z,6Z)-3-Benzylidene-6-cyclohexylmethylene-1,4-dimethyl-2,5-piperazinedione] | 6 | 40 | – | IC50 (AR 1.0 cells [3]; [5]): 1 µM; Potentiation Index (at 5 μM) (AR 1.0 cells [2]): 20
22 | COc1ccc(/C=c2/c(=O)[nH]/c(=C\c3cccs3)c(=O)n2C)cc1 [Compound 1564, (3Z,6Z)-6-(4-Methoxybenzylidene)-1-methyl-3-(2-thienylmethylene)-2,5-piperazinedione] | – | – | 46.3 | –
23 | COc1cccc2c1C(=O)c1c(O)c3c(c(O)c1C2=O)C[C@@](O)(C(=O)CO)C[C@@H]3O[C@H]1C[C@H](N)[C@H](O)[C@H](C)O1 [doxorubicin, reference compound] | – | – | – | toxicity of doxorubicin alone to AR 1.0 cells (AR 1.0 cells [3]; 0.5-1 μM, alone): non-toxic
24 | COc1ccc(/C=c2/c(=O)n(C)/c(=C\C=Cc3ccccc3)c(=O)n2C)cc1 [Compound 1777, (3Z,6Z)-3-Cinnamylidene-6-(4-methoxybenzylidene)-1,4-dimethyl-2,5-piperazinedione] | 80 | – | 50 | –
25 | COc1ccc(/C=c2\[nH]c(=O)/c(=C/c3cccs3)n(C)c2=O)cc1 [Compound 1597, (3Z,6Z)-3-(4-Methoxybenzylidene)-1-methyl-6-(2-thienylmethylene)-2,5-piperazinedione] | 50 | 25 | 59.1 | IC50 (AR 1.0 cells [3]; cytotoxic agent (doxorubicin) 1.00 μg/ml, 5760 min, read-out: TOXICITY WITH CYTOTOXIC AGENT (IC 50 μM)): 6 µM
26 | O=c1[nH]/c(=C\c2ccncc2)c(=O)n(Cc2ccccc2)/c1=C\c1ccccc1 [Compound 1840, (3Z,6Z)-1-Benzyl-6-benzylidene-3-(4-pyridyl)methylene-2,5-hydrochloride] | – | – | – | IC50 (AR 1.0 cells [3]; compound alone, read-out: COMPOUND TOXICITY (IC50 μM)): 5 µM; IC50 (AR 1.0 cells [3]; [5]): 1 µM; IC50 (AR 1.0 cells [1]; 1 hr): 12 µM
27 | Cn1c(=O)/c(=C/c2ccccc2)[nH]c(=O)/c1=C/c1ccsc1 [Compound 1641, (3Z,6Z)-3-Benzylidene-1-methyl-6-(3-thienylmethylene)-2,5-piperazinedione] | – | – | 50.5 | –
28 | Cn1c(=O)/c(=C/c2ccccc2)[nH]c(=O)/c1=C/c1cccs1 [Compound 1569, (3Z,6Z)-3-Benzylidene-1-methyl-6-(2-thienylmethylene)-2,5-piperazinedione] | – | – | 46 | –
